In general, IC50 refers to the concentration needed to halve the response being measured. In general, MIC refers to the lowest concentration found to suppress growth.

Consider 11 compounds from ChEMBL document CHEMBL5214921, “Bacterial type I signal peptidase inhibitors - Optimized hits from nature” (Eur J Med Chem, 2022).

Experiment [1] in a line: Inhibition of LepB (unknown origin). Also on record: species or system Bacteria.
In experiment [2] the test system is Staphylococcus aureus. The experiment is described as follows: Antibacterial activity against methicillin-resistant Staphylococcus aureus assessed as bacterial growth inhibition. The experiment is classed as functional.
In experiment [3] the test system is Staphylococcus aureus. The experiment is described as follows: Antibacterial activity against methicillin-resistant Staphylococcus aureus assessed as bacterial growth inhibition measured after 24 hrs. It is filed as functional.
Experiment [4] concerns Staphylococcus aureus. The experiment is described as follows: Antibacterial activity against Staphylococcus aureus NCTC 8325 assessed as bacterial cell growth inhibition by CLSI based broth microdilution method. It is filed as functional.
Experiment [5] has as its system Staphylococcus epidermidis. The experiment is described as follows: Antibacterial activity against Staphylococcus epidermidis assessed as bacterial cell growth inhibition by CLSI based broth microdilution method. It is filed as functional. For orientation: Broth dilution looks for growth in wells or tubes with falling amounts of substance.
Experiment [6] has as its system Pseudomonas aeruginosa. The experiment is described as follows: Antibacterial activity against wild type Pseudomonas aeruginosa PA14 assessed as inhibition of bacterial growth. It is filed as functional.
The subject of experiment [7] is Staphylococcus aureus. The experiment is described as follows: Antibacterial activity against Staphylococcus aureus assessed as bacterial cell growth inhibition. It is filed as functional.
The test system of experiment [8] is Pseudomonas aeruginosa. The experiment is described as follows: Antibacterial activity against wild type Pseudomonas aeruginosa PA14 assessed as inhibition of bacterial growth […] by CLSI based protocol. The experiment is classed as functional.
Experiment [9] relates to Escherichia coli. The experiment is described as follows: Antibacterial activity against Escherichia coli ATCC 25922 assessed as bacterial cell growth inhibition. The experiment is classed as functional.
Experiment [10] deals with Staphylococcus epidermidis. The experiment is described as follows: Antibacterial activity against Staphylococcus epidermidis assessed as bacterial cell growth inhibition. The experiment is classed as functional.
The nature of experiment [11]: Inhibition of Escherichia coli Signal peptidase I using decanoyl-k(DABCYL)-TPTAKAASKKD-D(EDANS)-NH2 as substrate by fluorescence-based analysis.
Experiment [12] can be described thus: Inhibition of Streptococcus pneumoniae Signal peptidase I using decanoyl-k(DABCYL)-TPTAKAASKKD-D(EDANS)-NH2 as substrate by fluorescence-based analysis.
Experiment [13] in a line: Inhibition of Staphylococcus aureus SpsB incubated for 15 mins by fluorescence based analysis.
Experiment [14] deals with Staphylococcus epidermidis. The experiment is described as follows: Antibacterial activity against Staphylococcus epidermidis ATCC 35984 assessed as bacterial cell growth inhibition measured after 18 hrs by CLSI based broth microdilution method. The experiment is classed as functional.
Experiment [15] concerns Escherichia coli. The experiment is described as follows: Antibacterial activity against Escherichia coli MG1655 assessed as bacterial cell growth inhibition measured after 18 hrs by CLSI based broth microdilution method. The experiment is classed as functional.
In experiment [16] the test system is Escherichia coli. The experiment is described as follows: Antibacterial activity against Escherichia coli assessed as bacterial cell growth inhibition. The experiment is classed as functional.
The subject of experiment [17] is Staphylococcus aureus. The experiment is described as follows: Antibacterial activity against Staphylococcus aureus 8325 assessed as bacterial cell growth inhibition measured after 18 hrs by CLSI based broth microdilution method. It is filed as functional.

Each structure is given as a SMILES string. ≈ marks a conversion by molar mass, not a printed value. *1 amine or outer side, *2 acyl side, *3 side chain or, on linkers, in order; H or OH if unused. Where a SMILES comes first, the peptide text is derived from it. [ ]: non-standard residue; d: D form. The star is where a group is joined. X1 = C[C@H](N[*:1])C(=O)C(=O)[*:2]; NMeT = CN[C@H](C(=O)O)[C@@H](C)O; Decanoyl = CCCCCCCCCC(=O)*; βAla = NCCC(=O)O

`C=CCOC(=O)C1=CS[C@H]2[C@@H]([C@@H](C)O)C(=O)N12` gave an IC50 in experiment [1] of 180 nM.
The same measure, in the same setting: under `C=CCOC(=O)C1=CS[C@H]2[C@@H]([C@@H](C)OC(C)=O)C(=O)N12` stands 70 nM.
For `O=C(Nc1ccc2c(c1)OC(F)(F)O2)Nc1ccc(Cl)c(C(F)(F)F)c1`, the MIC came out at 0.12 µg/mL (≈ 0.304 µM) in experiment [2] and 0.3 µM (≈ 0.118 µg/mL) in experiment [3].
In the case of `C[C@@H]1NC(=O)[C@@H](N(C)C(=O)CNC(=O)[C@@H](C)NC(=O)[C@@H](CO)NC(=O)CCCCCCCCc2ccc(-c3ccccc3)cc2)c2ccc(O)c(c2)-c2cc(ccc2O)C[C@@H](C(=O)O)NC1=O`, the MIC in experiment [4] and in [5] was 16 µg/mL (≈ 17.4 µM) in each case.
On to `Cc1nc(-c2ccc(C(C)(C)C)cc2)ncc1C(=O)N[C@@H](CCN)C(=O)N(C)[C@@H]1C(=O)N[C@@H](C)C(=O)N[C@H](C(=O)NCC#N)Cc2cc(OCCN)cc(c2)-c2cc1ccc2OCCN`, for which the MIC is 1.78 µg/mL (≈ 2 µM) in experiment [6]; 0.06 µg/mL (≈ 0.0674 µM) in experiment [7]; 2 µM (≈ 1.78 µg/mL) in experiment [8]; 0.125 µg/mL (≈ 0.14 µM) in experiment [9]; 0.25 µg/mL (≈ 0.281 µM) in experiment [10].
In the case of `CCCC(C)/C=C(/C)C(=O)OC(CCCCCCC/C=C/C(=O)NCCC(=O)N[C@@H](CS(=O)(=O)O)C(=O)N(C)[C@@H]1C(=O)N[C@@H](C)C(=O)N[C@H](C(=O)O)Cc2ccc(O)c(c2)-c2cc1cc(O)c2O[C@@H]1O[C@@H](C)[C@H](OS(=O)(=O)O)[C@@H](OS(=O)(=O)O)[C@H]1O)CCC(C)C` (stereo partly drawn), the IC50 in [11] turned out to be 110 nM; in experiment [12], 2400 nM.
On to `Cc1nc(-c2ccc(C(C)(C)C)cc2)nc(C)c1C(=O)N[C@@H](CCN)C(=O)N(C)[C@@H]1C(=O)N[C@@H](C)C(=O)N[C@H](C(=O)NCC#N)Cc2cc(OCCN)cc(c2)-c2cc1ccc2OCCN`, for which the MIC in experiment [6] came to 1.81 µg/mL (≈ 2 µM); in experiment [8] it was 2 µM (≈ 1.81 µg/mL).
Consider `CCCCCCCCCC(=O)N[C@@H](CC(C)C)C(=O)N[C@H](C(=O)N1CCC[C@H]1C(=O)N(C)[C@H](C(=O)N[C@@H](C)C(=O)N[C@@H](CC(N)=O)C(=O)N[C@@H](C)C(=O)C(=O)NCCC(=O)N[C@@H](CC(=O)O)C(=O)O)[C@@H](C)O)[C@@H](C)O` (Decanoyl-LTP[NMeT]AN[X1][βAla]D-OH), for which, in [13], the IC50 came out at 100 nM.
As to `CC(C)CCCCCCCCC(=O)N(C)[C@H](CO)C(=O)N[C@H](C)C(=O)NCC(=O)N(C)[C@@H]1C(=O)N[C@@H](C)C(=O)N[C@H](C(=O)O)Cc2ccc(O)c(c2)-c2cc1ccc2O` [ARYLOMYCIN A2], the MIC in experiment [7] is 104 µg/mL (≈ 126 µM); in experiment [14], 1 µM (≈ 0.825 µg/mL); in experiment [15], above 128 µM; in experiment [16], 104 µg/mL (≈ 126 µM); in experiment [17] it was above 128 µM; in [10], 0.81 µg/mL (≈ 0.982 µM).
Take `CCCCCCCCCCCCCCCC(=O)N(C)[C@H](CO)C(=O)N[C@H](C)C(=O)NCC(=O)N(C)[C@@H]1C(=O)N[C@@H](C)C(=O)N[C@H](C(=O)O)Cc2ccc(O)c(c2)-c2cc1ccc2O` [ARYLOMYCIN C16]: the MIC in [14] was found to be 0.5 µM (≈ 0.441 µg/mL); in [15], 16 µM (≈ 14.1 µg/mL); in experiment [16] it was 13.9 µg/mL (≈ 15.7 µM); in [10] it was 0.43 µg/mL (≈ 0.488 µM).
Turning to `CNC(=O)c1cc(Oc2ccc(NC(=O)Nc3ccc(Cl)c(C(F)(F)F)c3)cc2)ccn1` [SORAFENIB], the MIC in experiment [2] turned out to be 1.39 µg/mL (≈ 2.99 µM); in [3], 3 µM (≈ 1.39 µg/mL).
